In PMC7011792 (Journal of Enzyme Inhibition and Medicinal Chemistry, 2017):
Read-outs that look alike come from different tables or passages of the source.

Tests used:
[1] = biological target: T1, BuChE (EC 3.1.1.8) from horse serum (Equus caballus, UniProt P81908); assay: biochemical; format: biochemical; conditions: BuChE from horse serum; mean ± SEM of three experiments
T1 construct: purchased Sigma-Aldrich C0663; host or cells: equine serum

[2] = biological target: T2, huAChE (Homo sapiens, UniProt P22303); assay: Kinetic study of huAChE inhibition (Lineweaver-Burk, Michaelis-Menten); format: biochemical; conditions: Lineweaver–Burk plots, 1, 2, 4, 10 nM
T2 construct: purchased Sigma-Aldrich C1682
T2 sequence (P22303 32-614): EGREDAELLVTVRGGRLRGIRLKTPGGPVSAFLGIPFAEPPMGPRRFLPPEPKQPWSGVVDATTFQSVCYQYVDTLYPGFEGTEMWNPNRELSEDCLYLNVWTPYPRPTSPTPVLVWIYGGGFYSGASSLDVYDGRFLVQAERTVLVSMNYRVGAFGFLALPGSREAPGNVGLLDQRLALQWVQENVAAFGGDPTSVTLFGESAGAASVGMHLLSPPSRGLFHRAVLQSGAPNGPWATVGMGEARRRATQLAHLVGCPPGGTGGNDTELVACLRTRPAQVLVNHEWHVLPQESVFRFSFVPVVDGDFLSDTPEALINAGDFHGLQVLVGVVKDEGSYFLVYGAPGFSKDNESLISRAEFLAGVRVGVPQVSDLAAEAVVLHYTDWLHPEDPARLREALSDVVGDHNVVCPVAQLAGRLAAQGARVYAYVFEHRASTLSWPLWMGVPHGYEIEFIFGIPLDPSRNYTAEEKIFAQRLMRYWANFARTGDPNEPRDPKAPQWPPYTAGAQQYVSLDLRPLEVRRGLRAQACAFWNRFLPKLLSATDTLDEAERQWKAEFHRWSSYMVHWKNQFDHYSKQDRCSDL
Procedure: Kinetic studies were performed according to methods reported previously. The concentrations of the substrate ATC or BTC were prepared as 25, 50, 90, 150, 226, and 452 µM. Different concentrations of compound 19 with 0, 1, 2, 4, 10 nM, were also prepared by stock solution. For measurement, the enzymatic reaction was extended to 20 min (huAChE and huBuChE) before the determination of the absorption. Graph Pad Prism 5 was applied for data processing. Vmax and Km values of the Michaelis–Menten kinetics were determined by nonlinear regression from substrate-velocity curves, while Lineweaver–Burk plots were fitted by using linear regression method.

[3] = biological target: T3, Aβ1–42 (Homo sapiens, UniProt P05067); assay: Inhibition of self-induced Aβ1–42 aggregation (Thioflavin T assay); format: biochemical; conditions: compound 25 μM, 24 h, read-out: Inhibitory rate on self-induced Aβ1-42 aggregation
T3 construct: aliquots of 2.0 µL of Aβ1–42 (AS-64129–05 Anaspec Inc.); purchased Anaspec Inc. AS-64129–05
T3 sequence (P05067 672-713): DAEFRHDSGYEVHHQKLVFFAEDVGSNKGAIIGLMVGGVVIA
Procedure: Inhibitory effects of the compounds on self-induced Aβ1–42 aggregation were evaluated using a Thioflavin T (ThT)-(T3516, Sigma-Aldrich, St. Louis, MO) binding assay according to the previously reported method. […] The Aβ1–42 and the test sample solutions were incubated for 24 h at the room temperature.
The inhibitory rate of Aβ1–42 self-induced aggregation was calculated according to the following equation: (1-IFi/IFc) × 100%. IFi and IFc were the fluorescence intensities in the presence and absence of inhibitors, respectively, after subtracting the background fluorescence of the 5 mM Thioflavin T solution. Each measurement was repeated in triplicate. The inhibitory rate of the test compound was shown in mean ± SD.

[4] = system: ICR mice
Procedure: The activity of AST and ALT, two indicators of liver damage, was determined using corresponding assay kit (EF551 and EF550 for ALT, EH027, and EF548 for AST, Wako, Japan).
One hour after the collection of retrobulbar blood, mice were sacrificed and livers were harvested for morphological studies by using immunohistochemical method. Two 3 mm sections of each liver extending from the hilus to the margin of the left lateral lobe were isolated by Ultra-Thin Semiautomatic Microtome (Leica RM2245, Germany) and immediately placed in 10% buffered formaldehyde, fixed for two days, and embedded together in one paraffin block by using Paraffin Embedding Station (Leica EG1150H, Germany). Subsequently, 5 µm sections were prepared from these paraffin blocks. They were deparaffinated and stained with hematoxylin and eosin or by means of the periodic acid-Schiff procedure for glycogen.

[5] = system: ICR mice; assay: Morris water maze test, scopolamine-induced cognitive impairment
[6] = 22 h after ig administration, 151.5 µmol/kg, mice serum, n = 6
[7] = 36 h after ig administration, 151.5 µmol/kg, mice serum, n = 6

T1 sequence (P81908 whole entry): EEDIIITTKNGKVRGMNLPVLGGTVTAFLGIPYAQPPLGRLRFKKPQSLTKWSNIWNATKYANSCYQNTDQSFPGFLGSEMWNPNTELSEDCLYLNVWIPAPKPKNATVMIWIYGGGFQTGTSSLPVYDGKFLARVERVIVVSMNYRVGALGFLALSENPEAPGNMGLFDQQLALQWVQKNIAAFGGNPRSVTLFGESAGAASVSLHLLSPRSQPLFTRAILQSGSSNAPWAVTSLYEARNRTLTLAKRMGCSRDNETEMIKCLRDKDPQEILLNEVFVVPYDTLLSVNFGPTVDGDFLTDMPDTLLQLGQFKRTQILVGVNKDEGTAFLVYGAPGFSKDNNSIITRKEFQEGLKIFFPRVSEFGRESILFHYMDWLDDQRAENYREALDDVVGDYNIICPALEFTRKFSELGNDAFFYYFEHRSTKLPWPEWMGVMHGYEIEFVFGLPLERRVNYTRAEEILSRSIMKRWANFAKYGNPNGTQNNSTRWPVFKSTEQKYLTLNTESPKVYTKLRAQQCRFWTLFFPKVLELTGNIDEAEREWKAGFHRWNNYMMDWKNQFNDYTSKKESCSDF

## O=C(/C=C/c1ccc([N+](=O)[O-])cc1)NCCCCCCNc1c2c(nc3ccccc13)CCCC2 [Compound 19, (E)-3-(4-nitrophenyl)-N-(6-((1,2,3,4-tetrahydroacridin-9-yl)amino)hexyl)acrylamide]
[1]
  IC50: 6.5 ± 0.6 nM
[2]
  type of inhibition on huAChE: noncompetitive
[3]
  inhibition at 25 µM: 31.8%
[4]; 8 h after ig administration, 151.5 µmol/kg, mice serum, n = 6
  AST (U/L): 119.6 ± 10.8 U/L
[4]; [6]
  ALT (U/L): 44.4 ± 3.9 U/L
  AST (U/L): 130.6 ± 8.2 U/L
[4]; [7]
  ALT (U/L): 40.2 ± 2.5 U/L
  AST (U/L): 133.9 ± 13.5 U/L
[4]; mouse, in vivo
  ALT (U/L): 36.0 ± 2.9 U/L
  morphologic changes in liver: did not cause remarkable morphologic changes in liver
[5]; learning and training, Day 5, oral, plus scopolamine, ICR mice
  Latency to target (second), Day 5: 54.1 ± 8.9 s
[5]; learning and training, Day 6, oral, plus scopolamine, ICR mice
  Latency to target (second), Day 6: 36.5 ± 4.2 s
[5]; learning and training, Day 7, oral, plus scopolamine, ICR mice
  Latency to target (second), Day 7: 36.6 ± 4.3 s
[5]; learning and training, Day 8, oral, plus scopolamine, ICR mice
  Latency to target (second), Day 8: 35.2 ± 4.7 s
[5]; learning and training, Day 9, oral, plus scopolamine, ICR mice
  Latency to target (second), Day 9: 26.1 ± 1.4 s
[5]; probe trial, oral administration plus scopolamine (1 mg/kg ip), ICR mice, mean ± SEM, n = 6
  Latency to Target: 25.0 ± 1.5 s
[5]; scopolamine-impaired ICR mice, compared to tacrine group
  trajectory in the Morris water maze test: much shortened distances as compared to tacrine group
